# Legend:
# [1] = molecular target: T1, GID1B based sensor (GID1B.5) (Arabidopsis thaliana, UniProt Q9LYC1, V53A); experiment: yeast solid media luciferase assay, GID1B based sensor (GID1B.5) with overlapping firefly luciferase fragments; type: cell-based; conditions: GA3 100 μM vs mock (100% ethanol), FIG. 7
# T1 construct: a GID1B based sensor with overlapping firefly luciferase fragments (plasmid IR235); expressed in transfected cells; host or cells: Saccharomyces cerevisiae (yeast), plasmid printed as IR235
# Procedure: In order to assess the impact of the presence of overlapping parts of firefly luciferase on the GID1B based sensor (GID1B.5) at the split point, a GID1B based sensor with overlapping firefly luciferase fragments (plasmid IR235) was compared in a Y2H assay to a GID1B based sensor without overlapping firefly luciferase fragments (plasmid IR241).
# Four representative colonies were selected and plated onto Nylon membranes as described before. After 3 days at 30° C. the membranes were incubated in selective media containing luciferase substrate for 4 hours in dark at room temperature. Each replicate was subsequently transferred to plates containing selective media supplemented with luciferase substrate. […] Luciferase activity was recorded as indicated before.
# [2] = molecular target: T2, Arabidopsis thaliana GID1C based sensor (Arabidopsis thaliana, UniProt Q940G6); experiment: in planta assay: GA sensor in ga1-3 mutant plants sprayed with GA3, luciferase imaging; type: in vivo; conditions: ga1-3 plants containing the sensor, sprayed with 100 μM GA3 solution vs mock; FIG. 4
# T2 construct: expressed in transfected cells; host or cells: Arabidopsis thaliana ga1-3 mutant plants (Ler background), Agrobacterium floral dip, construct IR216 (35S::GID1CLUC in pFK210)
# Text: To validate in planta the results obtained in yeast, the inventors introduced the GA sensors under the control of the constitutive viral promoter 35S into Arabidopsis thaliana plants. The constructs IR208 and IR216 were independently introduced using the floral dip method of Agrobacterium-mediated transformation into the Arabidopsis thaliana Ler-1 (Landsberg erecta) wild-type strain and its isogenic ga1-3 mutant strain (containing a deletion in the gene for the enzyme that catalyzes an early step in the synthesis of GA: Sun et al., Plant Cell, 1992, 4, 119-128). Plants were grown in soil under Basta™ selection and short day conditions (8h light/16h dark).
# In this case, the Arabidopsis thaliana GID1C based sensor produced a faster and stronger signal than the Arabidopsis thaliana GID1B based sensor. To ascertain whether the reporter system according to the invention could quantitatively report the presence of endogenous bioactive GA isoforms, the inventors grew the Arabidopsis thaliana Ler-1 wild-type plants containing the Arabidopsis thaliana GID1C based sensor along with Arabidopsis thaliana GA3ox1-GUS and GA3ox2-GUS reporter lines. The GA sensor was active in a pattern that indicated the presence of active forms of GA in emerging leaves and at the base and vasculature of older leaves. […]
# [3] = described ranking of GA isoforms; cited from earlier work
# [4] = molecular target: T3, GID1C based sensor peptide with co-expression of a DELLA protein (GAI) (Arabidopsis thaliana, UniProt Q940G6); experiment: yeast liquid luciferase assay, GID1C based sensor with co-expression of the DELLA protein GAI; type: cell-based; conditions: Saccharomyces cerevisiae, GAI co-expressed; FIG. 6D
# T3 construct: expressed in transfected cells; host or cells: Saccharomyces cerevisiae AH109, plasmids IR214 (GID1CLUC-pDest22) and IR236 (GAI in pDEST32)
# Procedure: Two representative colonies were selected and plated onto Nylon membranes as described before. After 3 days at 30° C. the membranes were incubated in selective media containing luciferase substrate for 4 hours in dark at room temperature. […] Luciferase activity was recorded as indicated before. For liquid assays, the inventors inoculated one representative colony for each version of the sensor in 5 ml of selective media (YNB, MPBlo, supplemented with CSM Trp^−, Bio 101) containing luciferase substrate and grown under shaking at 28° C. for 18 hours. […] Plates were incubated for 16 hours at 28° C. in a cabinet and luciferase activity was recorded during the entire period of the experiment using a Topcount™ device (Perkin Elmer).
# First, the coding sequence of the DELLA protein GAI (At1g14920) was cloned into the yeast plasmid pDEST32 (Invitrogen) yielding the construct IR236. Subsequently, yeast cells were transformed with the plasmids IR206 or IR214 in combination with the empty pDEST32 vector or IR236. Following the same approach than described before in Example 3, we assayed 4 GA isoforms, the same four than in the former assay. The experimental setting was the same than in Example 3 with the difference that the selective media used was deficient in Trp and Leu (YNB, MPBlo, supplemented with CSM Trp^−Leu^−, Bio 101) to select for the presence of both plasmids within the yeast cells. […]
# T3 sequence (Q940G6 with tags, fused parts or gaps): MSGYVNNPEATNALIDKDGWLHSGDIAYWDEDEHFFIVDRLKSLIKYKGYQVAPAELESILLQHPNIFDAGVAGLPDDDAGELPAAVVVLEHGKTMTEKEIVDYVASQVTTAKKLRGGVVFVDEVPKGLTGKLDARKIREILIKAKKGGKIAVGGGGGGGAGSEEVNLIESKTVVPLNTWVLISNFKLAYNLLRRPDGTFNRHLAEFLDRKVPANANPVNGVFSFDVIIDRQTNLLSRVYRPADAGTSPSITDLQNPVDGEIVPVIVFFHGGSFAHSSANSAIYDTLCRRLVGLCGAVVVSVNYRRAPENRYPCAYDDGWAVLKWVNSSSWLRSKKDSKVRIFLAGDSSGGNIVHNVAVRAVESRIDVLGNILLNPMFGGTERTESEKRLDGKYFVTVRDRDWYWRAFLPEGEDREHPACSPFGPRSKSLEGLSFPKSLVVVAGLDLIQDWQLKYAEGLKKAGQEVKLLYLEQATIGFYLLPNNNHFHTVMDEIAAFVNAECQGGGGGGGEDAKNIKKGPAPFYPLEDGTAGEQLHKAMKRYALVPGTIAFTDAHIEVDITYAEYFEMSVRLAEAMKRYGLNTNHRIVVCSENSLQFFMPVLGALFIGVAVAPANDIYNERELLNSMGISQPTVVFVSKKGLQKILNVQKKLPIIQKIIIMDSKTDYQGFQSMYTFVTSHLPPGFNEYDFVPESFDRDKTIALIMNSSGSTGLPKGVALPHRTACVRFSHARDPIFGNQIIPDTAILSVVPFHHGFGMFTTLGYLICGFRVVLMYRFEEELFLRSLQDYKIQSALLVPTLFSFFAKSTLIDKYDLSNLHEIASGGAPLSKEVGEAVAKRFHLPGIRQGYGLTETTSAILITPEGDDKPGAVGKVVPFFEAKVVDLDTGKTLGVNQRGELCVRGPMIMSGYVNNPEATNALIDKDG
# T3 sequence (Q9LQT8 2-533 partner limits assumed): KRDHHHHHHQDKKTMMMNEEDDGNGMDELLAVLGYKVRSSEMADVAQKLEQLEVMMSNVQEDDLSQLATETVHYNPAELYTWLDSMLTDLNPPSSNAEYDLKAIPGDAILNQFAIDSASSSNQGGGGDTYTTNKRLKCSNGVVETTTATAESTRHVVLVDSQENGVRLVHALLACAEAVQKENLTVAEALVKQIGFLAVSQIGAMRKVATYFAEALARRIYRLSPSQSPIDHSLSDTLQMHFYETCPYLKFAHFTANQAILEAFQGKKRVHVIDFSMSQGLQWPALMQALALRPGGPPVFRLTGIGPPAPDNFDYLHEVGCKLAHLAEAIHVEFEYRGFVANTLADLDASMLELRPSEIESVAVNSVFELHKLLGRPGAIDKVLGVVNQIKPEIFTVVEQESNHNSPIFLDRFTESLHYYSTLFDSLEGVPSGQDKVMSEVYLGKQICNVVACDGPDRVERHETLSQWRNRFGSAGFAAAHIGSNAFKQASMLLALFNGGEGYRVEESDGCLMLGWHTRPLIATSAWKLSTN
# T2 sequence (Q940G6 with tags, fused parts or gaps): as the sequence (Q940G6 with tags, fused parts or gaps) above
# T1 sequence (Q9LYC1 other isoform, or with tags, fused parts or gaps V53A): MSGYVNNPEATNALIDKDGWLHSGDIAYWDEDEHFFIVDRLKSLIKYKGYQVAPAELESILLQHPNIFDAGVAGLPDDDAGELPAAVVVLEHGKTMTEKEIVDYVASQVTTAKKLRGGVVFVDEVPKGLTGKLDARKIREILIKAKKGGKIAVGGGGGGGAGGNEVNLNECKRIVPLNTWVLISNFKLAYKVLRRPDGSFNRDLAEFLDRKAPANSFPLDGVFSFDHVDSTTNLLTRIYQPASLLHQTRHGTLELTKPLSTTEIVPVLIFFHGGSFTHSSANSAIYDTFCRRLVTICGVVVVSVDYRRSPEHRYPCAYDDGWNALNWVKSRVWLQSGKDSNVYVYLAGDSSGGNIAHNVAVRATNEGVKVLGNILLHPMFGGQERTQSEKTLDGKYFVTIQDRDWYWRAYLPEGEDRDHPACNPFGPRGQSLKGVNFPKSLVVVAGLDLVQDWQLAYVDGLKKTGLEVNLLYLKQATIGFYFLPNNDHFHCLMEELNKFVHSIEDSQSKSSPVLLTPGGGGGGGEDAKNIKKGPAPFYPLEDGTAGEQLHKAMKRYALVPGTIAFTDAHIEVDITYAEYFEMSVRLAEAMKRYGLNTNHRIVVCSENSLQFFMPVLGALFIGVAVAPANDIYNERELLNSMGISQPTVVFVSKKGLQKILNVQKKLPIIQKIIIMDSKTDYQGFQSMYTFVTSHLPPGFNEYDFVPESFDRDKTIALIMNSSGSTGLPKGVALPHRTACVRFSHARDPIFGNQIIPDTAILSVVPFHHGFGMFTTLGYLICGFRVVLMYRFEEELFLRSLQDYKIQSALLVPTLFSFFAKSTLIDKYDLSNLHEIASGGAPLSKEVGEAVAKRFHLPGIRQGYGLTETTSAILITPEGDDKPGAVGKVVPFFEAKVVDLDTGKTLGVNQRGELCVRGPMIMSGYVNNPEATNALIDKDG
luciferase signal [4],Structure (SMILES),luciferase signal [1],bioluminescence upon luciferase substrate application [2],biological activity in planta assay [3]
,"C=C1C[C@]23C[C@@]1(O)CC[C@H]2[C@@]12C=C[C@H](O)[C@@](C)(C(=O)O1)[C@H]2[C@@H]3C(=O)O [GA3, gibberellic acid]",clearly higher,showed bioluminescence,
,C=C1C[C@]23C[C@@]1(O)CC[C@H]2[C@@]12CC[C@H](O)[C@@](C)(C(=O)O1)[C@H]2[C@@H]3C(=O)O [GA1],,,less activity
,C=C1C[C@]23C[C@H]1CC[C@H]2[C@@]12CC[C@H](O)[C@@](C)(C(=O)O1)[C@H]2[C@@H]3C(=O)O [GA4],,,most biologically active
triggered luciferase signal,"C=C1C[C@]23C[C@H]1CC[C@H]2[C@@]12CC[C@H](O)[C@@](C)(C(=O)O1)[C@H]2[C@@H]3C(=O)OC [GA4-methylester, GA4-methyl ester]",,,barely active

# Reference: patent US10365289B2 (Max-Planck-Gesellschaft zur Forderung der Wissenschaften …, priority 2014, dated 2019)
